Experimental data from US20210130767A1, “Species of Genus Pholiota and Artificial Cultivation Method and Use Thereof” (Guangdong Institute of Microbiology (Guangdong Detection …, priority 2019, published 2021).

Tested on: Staphylococcus aureus
Test: Determination of inhibition zone (agar well diffusion, coating / pour plate method)
Type: cell-based
Conditions: 24 h, 37° C., 1 day, x ± s, n = 3, positive control ampicillin 5 μg/mL, read-out: inhibition zone diameter
Experimental: Bacterial medium: nutrient agar/broth medium;
Nutrition agar/broth medium: beef paste 3 g, peptone 10 g, sodium chloride 5 g, agar 15 g, add water to 1000 ml, and adjust the pH to 7.4 (nutrient broth without agar).
Preparation of ethyl acetate extract: using rice medium (formulated rice and water), the strain of the present invention was incubated and cultured for 45 days, ethyl acetate was added, ultrasonic extraction was performed twice, 40 minutes for each time, and the extract was combined. The solvent was recovered in a rotary evaporator, and steamed to about 1-2 mL of the extract, and transferred to a collection bottle, the ethyl acetate extract is obtained and placed in a vacuum desiccator. After the solvent was completely evaporated, it was transferred to a refrigerator at 4° C. for use, and was filtrated and sterilizd with the bacteria syringe and filter for use.
Positive control preparation: Ampicillin solution, diluted with sterile water to a concentration of 5 μg/mL of the control solution, UV sterilization for 30 min. […]
The counted bacteria solution was diluted to a final concentration of 10^5˜10^6 cfu/mL, and 200 μL of the prepared bacteria suspension was pipetted onto the plate and uniformly coated with a coater. […] The culture was allowed to stand for 1 day, and the size of inhibition zone was measured. […]

`CC1(C)S[C@@H]2[C@H](NC(=O)[C@H](N)c3ccccc3)C(=O)N2[C@H]1C(=O)O` [Positive control, Ampicillin] showed a zone of inhibition at 5 µg/mL of 19.8 ± 1.7 mm.
